Data published in the NIST ThermoML archive (doi:10.1021/acs.jced.7b00650).
Numbers after ± are expanded uncertainties.

Details: Liquid; for viscosity: Capillary tube (Ostwald / Ubbelohde) method; for mass density: Vibrating tube method

CCCCCCCCCC [decane]
Details | mass density [kg/m3] | viscosity [mPa·s]
303.15 K, 2001 kPa | 724.01 ± 0.96 | 0.8079 ± 0.0089
303.15 K, 3991 kPa | 725.58 ± 0.96 | 0.8268 ± 0.0091
303.15 K, 6003 kPa | 727.19 ± 0.97 | 0.8461 ± 0.0093
303.15 K, 8001 kPa | 728.75 ± 0.97 | 0.8655 ± 0.0095
303.15 K, 9992 kPa | 730.27 ± 0.98 | 0.885 ± 0.0097
303.15 K, 13006 kPa | 732.5 ± 0.99 | 0.915 ± 0.01
303.15 K, 16005 kPa | 734.69 ± 1 | 0.9445 ± 0.01
303.15 K, 18998 kPa | 736.88 ± 1 | 0.9734 ± 0.011
303.15 K, 21997 kPa | 739 ± 1 | 1.004 ± 0.011
303.15 K, 25008 kPa | 741.03 ± 1 | 1.035 ± 0.011
303.15 K, 27989 kPa | 743.02 ± 1 | 1.066 ± 0.012
303.15 K, 29988 kPa | 744.3 ± 1.1 | 1.086 ± 0.012
323.15 K, 1995 kPa | 708.76 ± 0.94 | 0.6249 ± 0.007
323.15 K, 4003 kPa | 710.68 ± 0.94 | 0.6386 ± 0.0071
323.15 K, 5997 kPa | 712.57 ± 0.95 | 0.6529 ± 0.0073
323.15 K, 8005 kPa | 714.3 ± 0.96 | 0.6676 ± 0.0074
323.15 K, 10006 kPa | 715.96 ± 0.96 | 0.6824 ± 0.0076
323.15 K, 12995 kPa | 718.36 ± 0.98 | 0.7045 ± 0.0078
323.15 K, 15989 kPa | 720.73 ± 0.99 | 0.7274 ± 0.008
323.15 K, 18994 kPa | 723 ± 1 | 0.7511 ± 0.0083
323.15 K, 21997 kPa | 725.28 ± 1 | 0.774 ± 0.0085
323.15 K, 25006 kPa | 727.5 ± 1 | 0.7981 ± 0.0088
323.15 K, 28004 kPa | 729.62 ± 1 | 0.822 ± 0.009
323.15 K, 30005 kPa | 731.03 ± 1 | 0.8382 ± 0.0092
353.15 K, 5998 kPa | 689.96 ± 0.92 | 0.4714 ± 0.0053
353.15 K, 7997 kPa | 691.97 ± 0.93 | 0.4825 ± 0.0055
353.15 K, 22010 kPa | 704.95 ± 0.99 | 0.5612 ± 0.0063
353.16 K, 2000 kPa | 685.65 ± 0.91 | 0.448 ± 0.0051
353.16 K, 3999 kPa | 687.9 ± 0.9 | 0.4596 ± 0.0052
353.16 K, 9991 kPa | 694.06 ± 0.94 | 0.494 ± 0.0056
353.16 K, 13003 kPa | 697.01 ± 0.95 | 0.5106 ± 0.0058
353.16 K, 15994 kPa | 699.86 ± 0.97 | 0.5272 ± 0.0059
353.16 K, 19005 kPa | 702.43 ± 0.98 | 0.5442 ± 0.0061
353.16 K, 25000 kPa | 707.44 ± 1 | 0.5788 ± 0.0065
353.16 K, 27992 kPa | 710.01 ± 1 | 0.5967 ± 0.0067
353.16 K, 29995 kPa | 711.67 ± 1 | 0.6086 ± 0.0068

CCCCC [pentane]
Details | mass density [kg/m3] | viscosity [mPa·s]
293.21 K, 2000 kPa | 628.05 ± 0.84 | 0.232 ± 0.0029
293.21 K, 3998 kPa | 630.31 ± 0.85 | 0.2382 ± 0.0029
293.21 K, 6000 kPa | 632.63 ± 0.86 | 0.2439 ± 0.003
293.21 K, 8003 kPa | 634.89 ± 0.87 | 0.2495 ± 0.0031
293.21 K, 13008 kPa | 640.02 ± 0.9 | 0.2637 ± 0.0032
293.21 K, 30000 kPa | 655.38 ± 1 | 0.31 ± 0.0037
293.22 K, 10008 kPa | 636.91 ± 0.88 | 0.2551 ± 0.0031
293.22 K, 16007 kPa | 643 ± 0.92 | 0.2719 ± 0.0033
293.22 K, 19009 kPa | 645.81 ± 0.94 | 0.2806 ± 0.0034
293.22 K, 22010 kPa | 648.59 ± 0.96 | 0.2885 ± 0.0035
293.22 K, 25002 kPa | 651.19 ± 0.98 | 0.2967 ± 0.0036
293.22 K, 28002 kPa | 653.72 ± 1 | 0.3046 ± 0.0036
313.1 K, 2005 kPa | 608.49 ± 0.82 | 0.1968 ± 0.0025
313.1 K, 6001 kPa | 613.99 ± 0.84 | 0.2075 ± 0.0026
313.1 K, 7999 kPa | 616.58 ± 0.85 | 0.2126 ± 0.0027
313.1 K, 10005 kPa | 619.09 ± 0.87 | 0.218 ± 0.0027
313.1 K, 13001 kPa | 622.65 ± 0.89 | 0.2259 ± 0.0028
313.1 K, 16005 kPa | 626.03 ± 0.91 | 0.2334 ± 0.0029
313.1 K, 19002 kPa | 629.28 ± 0.93 | 0.2409 ± 0.003
313.1 K, 22002 kPa | 632.38 ± 0.95 | 0.2485 ± 0.0031
313.1 K, 25004 kPa | 635.4 ± 0.97 | 0.2558 ± 0.0031
313.1 K, 28002 kPa | 638.2 ± 0.99 | 0.2628 ± 0.0032
313.1 K, 30005 kPa | 640.09 ± 1 | 0.2676 ± 0.0033
313.11 K, 4002 kPa | 611.31 ± 0.83 | 0.2023 ± 0.0026
333.01 K, 2009 kPa | 587.87 ± 0.8 | 0.1679 ± 0.0022
333.01 K, 3997 kPa | 591.4 ± 0.81 | 0.1737 ± 0.0023
333.01 K, 6002 kPa | 594.59 ± 0.82 | 0.1787 ± 0.0023
333.01 K, 8008 kPa | 597.69 ± 0.84 | 0.1837 ± 0.0024
333.01 K, 10001 kPa | 600.61 ± 0.85 | 0.1888 ± 0.0024
333.01 K, 12998 kPa | 604.82 ± 0.87 | 0.1958 ± 0.0025
333.01 K, 15996 kPa | 608.78 ± 0.89 | 0.2029 ± 0.0026
333.01 K, 19000 kPa | 612.5 ± 0.91 | 0.21 ± 0.0026
333.01 K, 21997 kPa | 616.1 ± 0.94 | 0.217 ± 0.0027
333.01 K, 25000 kPa | 619.39 ± 0.96 | 0.2239 ± 0.0028
333.01 K, 27997 kPa | 622.68 ± 0.98 | 0.2306 ± 0.0029
333.01 K, 30006 kPa | 624.71 ± 1 | 0.2348 ± 0.0029
353.12 K, 2006 kPa | 565.77 ± 0.77 | 0.1452 ± 0.002
353.12 K, 3997 kPa | 570.01 ± 0.79 | 0.1504 ± 0.002
353.12 K, 6002 kPa | 574.02 ± 0.8 | 0.1557 ± 0.0021
353.12 K, 8003 kPa | 577.79 ± 0.82 | 0.1606 ± 0.0021
353.12 K, 10008 kPa | 581.28 ± 0.83 | 0.1654 ± 0.0022
353.12 K, 13000 kPa | 586.31 ± 0.85 | 0.1724 ± 0.0023
353.12 K, 16001 kPa | 590.9 ± 0.88 | 0.1792 ± 0.0023
353.12 K, 18997 kPa | 595.21 ± 0.9 | 0.1857 ± 0.0024
353.12 K, 25002 kPa | 603.1 ± 0.95 | 0.1987 ± 0.0025
353.12 K, 28005 kPa | 606.77 ± 0.98 | 0.2047 ± 0.0026
353.12 K, 30001 kPa | 609.1 ± 1 | 0.2087 ± 0.0026
353.13 K, 22000 kPa | 599.29 ± 0.93 | 0.1922 ± 0.0025

CCCCCCCCCCCC [dodecane]
Details | mass density [kg/m3] | viscosity [mPa·s]
293.21 K, 2007 kPa | 750.58 ± 0.99 | 1.522 ± 0.017
293.21 K, 3977 kPa | 752.18 ± 1 | 1.56 ± 0.017
293.21 K, 5979 kPa | 753.71 ± 1 | 1.599 ± 0.017
293.21 K, 7982 kPa | 755.06 ± 1 | 1.639 ± 0.018
293.21 K, 12987 kPa | 758.27 ± 1 | 1.74 ± 0.019
293.21 K, 29985 kPa | 768.5 ± 1.1 | 2.106 ± 0.023
293.22 K, 9987 kPa | 756.38 ± 1 | 1.679 ± 0.018
293.22 K, 15986 kPa | 760.07 ± 1 | 1.801 ± 0.02
293.22 K, 18994 kPa | 761.82 ± 1 | 1.865 ± 0.02
293.22 K, 21995 kPa | 763.63 ± 1.1 | 1.929 ± 0.021
293.22 K, 24987 kPa | 765.5 ± 1.1 | 1.994 ± 0.022
293.22 K, 27987 kPa | 767.37 ± 1.1 | 2.061 ± 0.022
313.1 K, 1990 kPa | 736.16 ± 0.97 | 1.089 ± 0.012
313.1 K, 4017 kPa | 737.72 ± 0.98 | 1.116 ± 0.012
313.1 K, 6016 kPa | 739.14 ± 0.98 | 1.143 ± 0.013
313.1 K, 8014 kPa | 740.64 ± 0.99 | 1.171 ± 0.013
313.1 K, 10011 kPa | 742.11 ± 1 | 1.199 ± 0.013
313.1 K, 13007 kPa | 744.26 ± 1 | 1.241 ± 0.014
313.1 K, 16011 kPa | 746.36 ± 1 | 1.283 ± 0.014
313.1 K, 19017 kPa | 748.61 ± 1 | 1.326 ± 0.015
313.1 K, 22017 kPa | 750.69 ± 1 | 1.37 ± 0.015
313.1 K, 25019 kPa | 752.63 ± 1.1 | 1.414 ± 0.015
313.1 K, 28017 kPa | 754.52 ± 1.1 | 1.458 ± 0.016
313.1 K, 30020 kPa | 755.75 ± 1.1 | 1.489 ± 0.016
333 K, 3976 kPa | 723.61 ± 0.96 | 0.8436 ± 0.0094
333.01 K, 2024 kPa | 721.82 ± 0.96 | 0.823 ± 0.0091
333.01 K, 5981 kPa | 725.32 ± 0.97 | 0.8643 ± 0.0096
333.01 K, 7987 kPa | 726.99 ± 0.97 | 0.885 ± 0.0098
333.01 K, 10019 kPa | 728.35 ± 0.98 | 0.9059 ± 0.01
333.01 K, 13016 kPa | 730.73 ± 0.99 | 0.9374 ± 0.01
333.01 K, 16014 kPa | 733.04 ± 1 | 0.9691 ± 0.011
333.01 K, 19018 kPa | 735.29 ± 1 | 1.001 ± 0.011
333.01 K, 22015 kPa | 737.46 ± 1 | 1.033 ± 0.011
333.01 K, 25018 kPa | 739.58 ± 1 | 1.066 ± 0.012
333.01 K, 28015 kPa | 741.65 ± 1.1 | 1.099 ± 0.012
333.01 K, 30024 kPa | 742.99 ± 1.1 | 1.121 ± 0.012
353.12 K, 2000 kPa | 706.86 ± 0.94 | 0.6433 ± 0.0072
353.12 K, 3991 kPa | 708.83 ± 0.94 | 0.6598 ± 0.0074
353.12 K, 5996 kPa | 710.75 ± 0.95 | 0.6763 ± 0.0076
353.12 K, 8009 kPa | 712.81 ± 0.96 | 0.6929 ± 0.0078
353.12 K, 10014 kPa | 714.63 ± 0.97 | 0.7095 ± 0.0079
353.12 K, 13006 kPa | 717.28 ± 0.98 | 0.7344 ± 0.0082
353.12 K, 16007 kPa | 719.83 ± 0.99 | 0.7594 ± 0.0085
353.12 K, 19003 kPa | 722.16 ± 1 | 0.7845 ± 0.0087
353.12 K, 22006 kPa | 724.55 ± 1 | 0.8098 ± 0.009
353.12 K, 25008 kPa | 726.87 ± 1 | 0.8352 ± 0.0093
353.12 K, 28011 kPa | 729.13 ± 1 | 0.8607 ± 0.0095
353.12 K, 30007 kPa | 730.59 ± 1.1 | 0.8778 ± 0.0097
